Results on 5 molecules are retold here after ChEMBL document CHEMBL1201862, “PubChem BioAssay data set” (2004).

Among the test systems are LOX IMVI; SK-MEL-28; NCI-H226; UACC-257; OVCAR-3; T47D; A498; HT-29; HOP-62; RPMI-8226; MCF7; ACHN; LXFL 529; SK-MEL-2; SF-539; IGROV-1; HL-60; UACC-62; MOLT-4; BT-549.
Holding throughout (test): NCI-60 cell line screen, 48 h

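Briefly, cells in 96-well plates were exposed to five compound concentrations for 48 h, and endpoints were estimated by linear interpolation. GI50 is the concentration that inhibits growth by half.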 Active and inactive are the calls of the source. Rule as the data show it: active = GI50 up to about 1.1 µM and inactive = higher.

As to `CC1=NN(C(=O)c2ccccc2O)C(=O)/C1=C/c1cccc([N+](=O)[O-])c1`, the GI50 in the assay with LOX IMVI was 0.695 µM (active); in the assay on SK-MEL-28, > 49.7 µM (inactive); in the assay on NCI-H226 it was 0.274 µM (active); in the assay with UACC-257 it was 5.73 µM (inactive); with OVCAR-3 it was 1.87 µM (inactive); in the assay with T47D, 17.3 µM (inactive). In addition, the GI50 is 0.164 µM (active) with A498; 38.7 µM (inactive) in the assay on HT-29; 1.23 µM (inactive) in the assay on HOP-62; 13.3 µM (inactive) in the assay with RPMI-8226; 2.52 µM (inactive) in the assay on MCF7; 0.528 µM (active) in the assay with ACHN. The GI50 with LXFL 529 is 0.451 µM (active); in the assay on SK-MEL-2, 3.1 µM (inactive); with SF-539, 0.377 µM (active); with IGROV-1, 0.384 µM (active); in the assay on HL-60, 1.22 µM (inactive); in the assay on UACC-62, 0.408 µM (active).

Take `CSc1nc2nc(C(O)C(O)C(O)CO)cnc2c(=O)[nH]1` (configuration not stated): the GI50 in the assay on LOX IMVI is > 100 µM (inactive); in the assay on SK-MEL-28, > 100 µM (inactive); with NCI-H226, > 100 µM (inactive); in the assay with UACC-257 it was > 100 µM (inactive); in the assay with OVCAR-3 it was 34 µM (inactive); in the assay with A498 it was > 100 µM (inactive). Moreover, the GI50 in the assay on MOLT-4, in the assay with HT-29, in the assay on HOP-62, in the assay on RPMI-8226, with ACHN and in the assay with LXFL 529 was > 100 µM (inactive) throughout. The GI50 in the assay on SK-MEL-2, in the assay on SF-539, in the assay with IGROV-1, with HL-60 and with UACC-62 was > 100 µM (inactive) each time.

Consider `C=C(C)[C@@H]1CC=C(CO)CC1` [PERILLYL ALCOHOL], for which the GI50 in the assay with LOX IMVI is 195 µM (inactive); in the assay on SK-MEL-28, 201 µM (inactive); in the assay on NCI-H226, 251 µM (inactive); in the assay with UACC-257 it was 533 µM (inactive); with OVCAR-3, 150 µM (inactive); with T47D, > 10 µM (inactive). The GI50 is 548 µM (inactive) in the assay with A498; 72.3 µM (inactive) with MOLT-4; 136 µM (inactive) with HT-29; 184 µM (inactive) with HOP-62; > 10 µM (inactive) in the assay with RPMI-8226; > 10 µM (inactive) with MCF7. The GI50 was 121 µM (inactive) with ACHN; 668 µM (inactive) in the assay on LXFL 529; 122 µM (inactive) in the assay with SK-MEL-2; > 10 µM (inactive) with BT-549; 501 µM (inactive) in the assay on SF-539; 574 µM (inactive) with IGROV-1. Also, the GI50 in the assay with HL-60 was 50.1 µM (inactive); with UACC-62 it was 236 µM (inactive).

For the molecule `CN(C)CC1CCC(CN(C)C)C(=O)C1=O` (configuration not stated), the GI50 is 8.63 µM (inactive) in the assay with LOX IMVI; 8.87 µM (inactive) in the assay on SK-MEL-28; 4.41 µM (inactive) in the assay with NCI-H226; 2.4 µM (inactive) in the assay on UACC-257; 2.31 µM (inactive) with OVCAR-3; 2.31 µM (inactive) in the assay with T47D. Besides, the GI50 in the assay with A498 was 16.8 µM (inactive); with MOLT-4 it was 2.03 µM (inactive); with HT-29 it was 7.64 µM (inactive); in the assay with HOP-62, 20.1 µM (inactive); in the assay with RPMI-8226 it was 2.52 µM (inactive); in the assay with MCF7 it was 2.46 µM (inactive). Also, the GI50 was 4.85 µM (inactive) in the assay on ACHN; 1.67 µM (inactive) with LXFL 529; 19.3 µM (inactive) with SK-MEL-2; 8.67 µM (inactive) with BT-549; 7.18 µM (inactive) in the assay with SF-539; 17.6 µM (inactive) in the assay with IGROV-1. For the same molecule, the GI50 with HL-60 is 2.36 µM (inactive); in the assay with UACC-62, 16.1 µM (inactive).

Take `Sc1nnc(COc2ccc(Cl)cc2)[nH]1`: the GI50 in the assay with LOX IMVI, with SK-MEL-28, in the assay with NCI-H226, with UACC-257, in the assay with OVCAR-3 and in the assay with A498 was > 100 µM (inactive) each time. The GI50 with MOLT-4, in the assay with HT-29, in the assay on HOP-62, with RPMI-8226, in the assay with ACHN and with LXFL 529 was > 100 µM (inactive) throughout. Moreover, the GI50 with SK-MEL-2, in the assay with SF-539, in the assay with IGROV-1, in the assay on HL-60 and with UACC-62 was > 100 µM (inactive) each time.
